Legend:
[1] = tested on: RA synovial cells; test: PDTC inhibition of IL-1 and GPRP induction of ICAM-1 (ELISA); type: cell-based, human; details: PDTC pre-incubation 1.5 hours, IL-1 or GPRP overnight, ± SD, triplicate
Description: (§1) NF-kappaB activation is already well known to affect a broad array of immediate-early gene products, such as TNF, interleukins, chemokines and colony stimulating factors; genes that are tightly regulated during inflammation and wound healing. […] PDTC is an anti-oxidant that prevents NF-kappaB activation and its translocation to the nucleus (Reference 26). […] [table]

[2] = tested on: OA synovial cells; test: as above; type: cell-based, human; details: PDTC pre-incubation 1.5 hours, IL-1 or GPRP overnight, ± SD, triplicate
Description: as §1

[3] = tested on: endothelial cells; test: Fibrin co-culture with endothelial cells; type: cell-based
Description: Synthetic peptides modeled after these “knobs” are able to inhibit fibrin polymerization by covering up the “holes” on the gamma chains and are commercially available.

Gly-Pro-Arg-Pro [GPRP]
ICAM-1 O.D. 492 ([1]; RA line 5): 1.83 ± .08 | ICAM-1 O.D. 492 ([1]; RA line 6): 1.67 ± .06 | ICAM-1 O.D. 492 ([2]; OA line 2): 1.66 ± .05 | ICAM-1 O.D. 492 ([2]; OA line 8): 1.30 ± .09 | Direct effects on endothelial cells [3]: no direct effects

Reference: US6908899B2, “Pro-inflammatory fibrinopeptide” (U.S. Dept. of Veterans Affairs, priority 2001, dated 2005)
